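Interpolation was linear, between the two tested concentrations surrounding the appropriate level; five concentrations were tested over 48 hours in 96-well plates. At the GI50, growth is halved.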 Active and inactive are the calls of the source. No stated cut-off is given here; in the data, active = GI50 up to about 1.1 µM and inactive = higher.
Experiments:
Assay in all cases: inhibition of tumour cell growth, NCI panel, 48 h
A498 = tested on: A498
DU-145 = tested on: DU-145
EKVX = tested on: EKVX
HOP-62 = tested on: HOP-62
Hs-578T = tested on: Hs-578T
K562 = tested on: K562
KM12 = tested on: KM12
M14 = tested on: M14
MCF7 = tested on: MCF7
Malme-3M = tested on: Malme-3M
NCI-H226 = tested on: NCI-H226
OVCAR-5 = tested on: OVCAR-5
RPMI-8226 = tested on: RPMI-8226
SF-539 = tested on: SF-539
SK-MEL-5 = tested on: SK-MEL-5
SR = tested on: SR
SW-620 = tested on: SW-620
T47D = tested on: T47D
U-251 = tested on: U-251
UACC-62 = tested on: UACC-62

Compound | GI50 (A498) | GI50 (DU-145) | GI50 (EKVX) | GI50 (HOP-62) | GI50 (Hs-578T) | GI50 (K562) | GI50 (KM12) | GI50 (M14) | GI50 (MCF7) | GI50 (Malme-3M) | GI50 (NCI-H226) | GI50 (OVCAR-5) | GI50 (RPMI-8226) | GI50 (SF-539) | GI50 (SK-MEL-5) | GI50 (SR) | GI50 (SW-620) | GI50 (T47D) | GI50 (U-251) | GI50 (UACC-62)
CC(=O)O[C@H]1CC[C@@]2(C)C(=CC[C@H]3[C@@H]4C/C(=C\c5ccncc5)[C@H](OC(C)=O)[C@@]4(C)CC[C@@H]32)C1 | 12.9 µM (inactive) | 15.4 µM (inactive) | 9.55 µM (inactive) | 4.54 µM (inactive) | 6.97 µM (inactive) | 3.15 µM (inactive) | 4.57 µM (inactive) | 10.9 µM (inactive) | 14.7 µM (inactive) | 7.67 µM (inactive) | 11.8 µM (inactive) | 16.9 µM (inactive) | 2.46 µM (inactive) | 3.95 µM (inactive) | 5.47 µM (inactive) | 2.7 µM (inactive) | 4.14 µM (inactive) | 14.2 µM (inactive) | 10 µM (inactive) | 13.2 µM (inactive)
O=C(O)c1ccccc1-c1ccccc1C(=O)Nc1ccc2c(c1)Cc1ccccc1-2 | 19.4 µM (inactive) | 38.8 µM (inactive) | 22.1 µM (inactive) | 58.6 µM (inactive) | 48.5 µM (inactive) |  | 32.4 µM (inactive) | 21.6 µM (inactive) | 28.1 µM (inactive) | 42.5 µM (inactive) | 67.6 µM (inactive) | 21.9 µM (inactive) | 23.4 µM (inactive) | 21.9 µM (inactive) | 15.5 µM (inactive) | 28.4 µM (inactive) | 31.8 µM (inactive) | 26.3 µM (inactive) | 28.6 µM (inactive) | 16.7 µM (inactive)
Clc1ccc2c(NCCCCN3OC3c3ccccc3)ccnc2c1 (stereo not drawn) | 8.36 µM (inactive) | 10.4 µM (inactive) | 21.8 µM (inactive) | 4.75 µM (inactive) | 14.6 µM (inactive) | 2.44 µM (inactive) | 7.5 µM (inactive) | 3.23 µM (inactive) | 4.29 µM (inactive) | 8.41 µM (inactive) | 18.4 µM (inactive) | 14.4 µM (inactive) | 2.92 µM (inactive) | 1.98 µM (inactive) | 4.79 µM (inactive) | 1.69 µM (inactive) | 5.21 µM (inactive) | 5.53 µM (inactive) | 3.4 µM (inactive) | 14.1 µM (inactive)
Cc1cc(=O)[nH]c2c1C(=O)c1c(C)cc(=O)n(C)c1C2=O | 0.214 µM (active) | 0.0238 µM (active) | 0.205 µM (active) | 0.0514 µM (active) | 0.0262 µM (active) | 0.122 µM (active) | 0.0678 µM (active) | 0.0147 µM (active) | 0.0168 µM (active) | 0.00177 µM (active) | 0.0293 µM (active) | 0.166 µM (active) | 0.33 µM (active) | 0.0208 µM (active) | 0.0151 µM (active) | 0.125 µM (active) | 0.0419 µM (active) | 0.303 µM (active) | 0.11 µM (active) | 0.0171 µM (active)
CSc1cccc(NC(=O)OC2CCCCCCCCCCC2)c1 | 21.7 µM (inactive) | 31.8 µM (inactive) | 19.1 µM (inactive) | 18.8 µM (inactive) | 34.4 µM (inactive) | 16.4 µM (inactive) | 13.3 µM (inactive) | 22.3 µM (inactive) | 20.6 µM (inactive) | 24.8 µM (inactive) | 29.9 µM (inactive) | 30.3 µM (inactive) | 14.7 µM (inactive) | 24.4 µM (inactive) | 15.4 µM (inactive) | 26.9 µM (inactive) | 18.8 µM (inactive) | 25.4 µM (inactive) | 18.8 µM (inactive) | 18.1 µM (inactive)
Nc1cc2c(c3ccccc13)C(CCl)CN2C(=O)c1cc2cc(NC(=O)Nc3ccc4[nH]c(C(=O)N5CC(CCl)c6c5cc(N)c5ccccc65)cc4c3)ccc2[nH]1 (stereo not drawn) | 0.197 µM (active) | < 0.01 µM (active) | 1.74 µM (inactive) | 0.0568 µM (active) | 1.35 µM (inactive) | 0.367 µM (active) | 1.08 µM (active) | < 0.0303 µM (active) | 0.0284 µM (active) | 0.412 µM (active) | 0.275 µM (active) | 0.612 µM (active) | 1.4 µM (inactive) | 0.0194 µM (active) | 0.141 µM (active) | < 0.01 µM (active) | 0.075 µM (active) | < 0.0377 µM (active) | 0.0573 µM (active) | 0.0634 µM (active)
Cc1c[nH]c2c(O)cc3c(c12)[C@H](CCl)CN3C(=O)c1cc2cc(NC(=O)Nc3ccc4[nH]c(C(=O)N5C[C@@H](CCl)c6c5cc(O)c5[nH]cc(C)c65)cc4c3)ccc2[nH]1 [BIZELESIN] | 0.904 µM (active) | 3.65 µM (inactive) | > 100 µM (inactive) | 1.05 µM (active) | > 100 µM (inactive) | 23.9 µM (inactive) | 12.1 µM (inactive) | 0.631 µM (active) | 0.578 µM (active) | 13.7 µM (inactive) | 0.183 µM (active) | 0.00136 µM (active) | 0.00131 µM (active) | 1.24 µM (inactive) | 12.5 µM (inactive) | 0.0832 µM (active) | 17.4 µM (inactive) | < 0.001 µM (active) |  | 0.701 µM (active)

Reference: ChEMBL document CHEMBL1201862, “PubChem BioAssay data set” (2004)
